The experiment addresses T1, Angiotensin II Receptor (Bos taurus, UniProt P25104).
T1 construct: The brownish tissue forming the adrenal cortex is scraped off and finely minced with scissors before homogenization; tissue local slaughter house (Maxwell--Cohen); host or cells: beef adrenal cortex, microsomal membranes (100,000×g pellet)
T1 sequence (P25104 1-359): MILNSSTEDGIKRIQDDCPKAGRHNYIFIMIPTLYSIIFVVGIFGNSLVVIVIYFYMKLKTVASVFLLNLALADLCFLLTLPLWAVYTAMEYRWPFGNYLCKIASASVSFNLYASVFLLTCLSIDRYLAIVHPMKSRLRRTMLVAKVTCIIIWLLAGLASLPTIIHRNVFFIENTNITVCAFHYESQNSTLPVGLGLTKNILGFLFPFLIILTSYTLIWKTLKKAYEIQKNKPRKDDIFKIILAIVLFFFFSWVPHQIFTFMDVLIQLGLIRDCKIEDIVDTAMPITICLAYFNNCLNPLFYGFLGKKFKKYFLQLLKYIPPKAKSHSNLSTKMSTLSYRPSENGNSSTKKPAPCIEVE
The experiment is described as follows: Receptor Binding Assay: binding of [125I](Sar1,Ile8)AngII to beef adrenal cortex membranes. From the text: [^125 I](Sar^1,Ile^8)AngII, S.A. 2200 Ci/mmole, is purchased from Dupont (NEN®, Boston, Mass.). All unlabeled AngII analogs, Dimethylsulfoxide (DMSO), nucleotides, bovine serum albumin (BSA) are purchased from Sigma Chemical Co., St. Louis, Mo. U.S.A.
Approximately sixteen (16) to twenty (20) beef adrenal glands are processed as follows: fresh adrenal glands received on crushed ice are cleaned of fatty tissues and the tough membranes encapsulating the glands are removed and discarded. The brownish tissue forming the adrenal cortex is scraped off and finely minced with scissors before homogenization. Care is taken to avoid contamination with medullary tissue during dissection. The scraped cortices are suspended in twenty volumes of an ice-cold buffer medium consisting of 10 mM Tris.HCl (pH 7.4 at 22° C.) and containing 1.0 mM EDTA and 0.2M sucrose. Unless otherwise indicated, all subsequent operations are done at 4° C. […] The homogenate is centrifuged first at low speed (3,000×g) for 10 min. […] This P2 pellet is discarded and the liquid phase is carefully decanted off in clean centrifuge tubes and recentrifuged at high speed (100,000×g) for 60 min. The translucent final pellet is harvested and combined in a small volume (20-50.0 ml) of 50.0 mM Tris.HCl buffer, pH 7.2. […] The pelleted membrane is reconstituted in 50.0 mM Tris.HCl buffer containing 0.1 mM of phenylmethylsulfonyl fluoride (PMSF) to give approximately a protein concentration of 2.5 mg per ml of tissue suspension. The membrane preparation is finally aliquoted in 1.0 ml volumes and stored at -70° C. until use in the binding assays.
In competition studies, experimental compounds are diluted in dimethylsulfoxide (DMSO) and added in 20 ul to wells before the introduction of tissue membranes. […] Assays are performed in triplicate. The wells are left undisturbed for 60 min. at room temperature. […] The filters are removed from the filter grid and counted in a Parkard® Cobra Gamma Counter for 1 min. […] The binding data are analyzed by the non-linear interactive "LUNDON-1" program (LUNDON SOFTWARE Inc., Cleveland, Ohio U.S.A.).

Compound `CCCCc1nc2ccc([C@@H]3C[C@H](CO)ON3C)cc2c(=O)n1Cc1ccc(-c2ccccc2-c2nn[nH]n2)cc1` (relative stereo) [Example 15, CIS-2-butyl-6-5-(hydroxymethyl)-2-methyl-3-isoxazolidinyl]-3-[[2'-(1H-tetrazol-5[1,1'-biphenyl]-4-yl]methyl]-4(3H)-quinazolinone] displayed an IC50 of 43 nM.
In the case of `CCCCc1nc2ccc([C@H]3C[C@H](CO)ON3C)cc2c(=O)n1Cc1ccc(-c2ccccc2-c2nnn[nH]2)cc1` (relative stereo) [Example 16, TRANS-2-butyl-6-[5-(hydroxymethyl)-2-methyl-3-isoxazolidinyl]-3-[[2'-(1H-tetrazol-5-yl)[1,1'-biphenyl]-4-yl]methyl]-4(3H)-quinazolinone] it was 61 nM.

Values taken from US5294617A, “Angiotensin II receptor blocking 2,3,6 substituted quinazolinones” (American Cyanamid Company, priority 1993, dated 1994).
